Where two headings read alike, the source gives them in different places.
Assays:
[1] = test system: aerobic bacteria (SPC) in raw milk; experiment: Standard Plate Count (SPC) of raw milk held under CO2 pressure, laboratory scale (Example 1); assay type: cell-based; conditions: for SPC increase / SPC reduction from initial SPC: 20° C.; for SPC reduction versus control: 1378 kPa
Excerpt: The apparatus for pressurizing and holding raw milk samples is shown in schematic form in FIG. 9 and consisted of two 13-ml stainless steel 1.27-cm OD cylindrical vessels 60, 61; one vessel 60 was pressurized while the other served as a control 61. Compressed and filtered CO2 from a high-pressure tank 62 was used (Empire Airgas, Inc, Elmira, N.Y.). The system consisted of pressure regulator 63, a fine metering valve 64 (NUPRO Company, Willoughby, Ohio), an on-off valve 65 (Circle Seal, Anaheim, Calif.) and a check valve 66 (NUPRO Company, Willoughby, Ohio). The fine metering valve controlled gas flow such that the time to reach desired pressure was less than five seconds. The gas entered the vertically positioned treatment vessel 60 from the bottom and was thus bubbled through the milk until the set pressure was reached. A check valve 66 was placed immediately before the inlet to the pressure vessel to prevent the backward flow of the fluid milk into the gas inlet line. The outlet of the vessels consisted of a pressure gauge 67 and a high-pressure release valve 68 (High Pressure Equipment, Erie, Pa.). The release valve 68 was kept tightly closed during treatment. The control vessel 61 was closed off from both ends but not connected to the carbon dioxide line inlet and outlet lines.
(§1) Milk samples were mixed and 5 ml of milk added into the treatment and control vessels. The treatment vessel was connected to the apparatus and the control vessel closed off. Both vessels were placed in the water bath. When the desired temperatures were attained in both treatment and control vessels, CO2 was introduced through the bottom of the treatment vessel until the set pressure was reached. The CO2 pressure was maintained throughout the test period. When the desired time was reached, the CO2 inlet was turned off, the pressure release valve on the outlet line opened, and the pressure released in under one minute. After depressurization, the treatment and control vessels were removed from the water bath and their external surfaces were wiped dry, sanitized with 95% ethanol, detached from the apparatus and transferred into sterile containers for dilution and plating.
Short (<1 h) and longer term (1, 4 and 9 day) experiments were conducted. Raw milk (Northeast Dairy Herd Improvement Association, Inc.; Ithaca, N.Y.) in 5 ml aliquots was treated at each of the following combinations of CO2 pressure, temperature, and time (kPa/° C./min): 1378/5/15, 2757/5/5, 3446/5/5. In longer term studies, raw milk from the T&R Center was first stored at 6° C./48 h so that the SPC were at detectable levels at treatment initiation. […]
Raw milk from the T&R Center was monitored for changes in aerobic bacteria, gram-negative bacteria and total Lactobacillus spp. as follows: CO2 pressures of 0 (control), 68, 172, 344, 516 and 689 kPa, at 6.1° C. for 4-days. SPC, gram-negative bacteria and total Lactobacillus spp. were enumerated before (day 0) and after (day 4) treatment. Gram negative bacteria were enumerated on MacConkey Agar (Difco Manual, Becton Dickinson & Co., Sparks, Md.), a selective and differential media which can be used to discriminate between lactose fermenting and non-lactose fermenting gram-negative bacteria. Use of this media allows a one-step method of obtaining estimates of both coliform and non-coliform gram negative bacteria. Coliform bacteria may include species of Escherichia, Klebsiella and Enterobacter, potential pathogens and/or spoilage organisms. Non-coliform gram negative bacteria may include spoilage organisms such as pseudomonads or potential pathogens such as Salmonella spp. or Shigella spp. Numbers of Lactobacillus spp. populations were estimated using acidified (adjusted to pH 5.5 with glacial acetic acid) Lactobacillus MRS agar (Difco Manual, Becton Dickinson & Co., Sparks, Md.) after incubation under anaerobic conditions; suspect colonies were confirmed by gram stain. […]

thermoduric bacteria = experiment: Thermoduric bacteria (laboratory pasteurization count) in raw milk under CO2 pressure (Example 1); assay type: cell-based; conditions: 4° C.
Procedure: as §1
(§2) The progression of these counts (total, Coliform/E. coli and thermoduric bacteria) in the treatment and control samples was tracked by conducting checks on the total aerobic counts (SPC) on treatment days 4 and 6. Based on the levels of total counts on days 4 and 6, analyses of total coli forms/E. coli and thermoduric bacteria after day 6 were conducted either in 1-day or 2-day intervals. The control sample final count was measured on days 4 and 6.
(§3) Initial total, coliform, and thermoduric counts were each determined for control and treated samples. Thermoduric organisms were enumerated by the laboratory pasteurization count (LPC) method described in the Standard Methods for the Examination of Dairy Products (Houghtby et al., 1992). The 3M Petri film count plate (3M Microbiology Products, St. Paul, Minn.) was used to enumerate total coli forms and Escherichia coli in the raw, treated and control milk samples.

coliforms = experiment: Total coliforms (Petrifilm) in raw milk under CO2 pressure (Example 1); assay type: cell-based; conditions: 689 kPa CO2 pressure, 4° C.
Procedure: as §1, §2, §3

[2] = test system: milk microbiota (SPC, aerobic microorganisms); conditions: cited from earlier work; for extension in storage life: 30 ppm CO2 (King and Mabbitt, 1982)
Lactobacillus plantarum = conditions: CO2 pressures of 13 MPa, 30° C., 30 minutes (Hong and Pyun, 1999); cited from earlier work

Q: For `O=C=O` [CO2, carbon dioxide], which “microbial growth compared to control milks” value ([1]; 68, 172, 344, 516 and 689 kPa, 6.1° C., 4 days) is on record?
A: significantly reduced microbial growth

Q: And the “SPC increase from initial SPC” value ([1]; 68 kPa, 6.1° C., 4 days)?
A: 1.28 log10 cfu/ml

Q: And the SPC increase ([1]; 68 kPa, 24 h)?
A: 1.07 log10 cfu/ml

Q: And the “SPC increase from initial SPC” value ([1]; 172 kPa, 6.1° C., 4 days)?
A: 1.10 log10 cfu/ml

Q: What about the SPC increase ([1]; 172 kPa, 24 h) of the same compound?
A: 0.59 log10 cfu/ml

Q: And the “decrease in counts (SPC)” value ([1]; 344 kPa CO2, 24 h, 10° C.)?
A: 0.31 log10 cfu/ml

Q: And the “SPC increase from initial SPC” value ([1]; 344 kPa, 6.1° C., 4 days)?
A: 0.94 log10 cfu/ml

Q: What about the “SPC reduction from initial SPC” value ([1]; 344 kPa, 24 h) of the same compound?
A: 0.39 log10

Q: What about the “decrease in counts (SPC)” value ([1]; 516 kPa CO2, 24 h, 10° C.) of the same compound?
A: 0.56 log10 cfu/ml

Q: And the “SPC of treated samples versus initial untreated samples” value ([1]; 516 kPa CO2 pressure, 6.1° C., 4 days)?
A: not significantly different

Q: And the “SPC increase from initial SPC” value ([1]; 516 kPa, 6.1° C., 4 days)?
A: 0.82 log10 cfu/ml

Q: What about the “SPC reduction from initial SPC” value ([1]; 516 kPa, 24 h) of the same compound?
A: 0.62 log10

Q: And the “time for treated milk to reach SPC of 10^5 cfu/ml” value ([1]; 689 kPa CO2, 4° C.)?
A: 8 days

Q: What about the “decrease in counts (SPC)” value ([1]; 689 kPa CO2, 24 h, 10° C.) of the same compound?
A: 0.71 log10 cfu/ml

Q: And the “SPC counts, Treated, 4 Days” value ([1]; 689 kPa CO2 pressure, 4° C., 4 days, raw milk)?
A: 7.8 * 10^2b cfu/ml

Q: What about the “SPC counts, Treated, 6 Days” value ([1]; 689 kPa CO2 pressure, 4° C., 6 days, raw milk) of the same compound?
A: 4.4 * 10^4c cfu/ml

Q: And the “SPC counts, Treated, 8 Days” value ([1]; 689 kPa CO2 pressure, 4° C., 8 days, raw milk)?
A: 9.7 * 10^4d cfu/ml

Q: And the “SPC counts, Treated, 9 Days” value ([1]; 689 kPa CO2 pressure, 4° C., 9 days, raw milk)?
A: 2.4 * 10^5e cfu/ml

Q: What about the “extension of treatment holding time compared to control” value ([1]; 689 kPa, 4° C.) of the same compound?
A: at least four days

Q: What about the “treated milk SPC” value ([1]; 689 kPa, 4° C., 6 days) of the same compound?
A: 4.64 log10 cfu/ml

Q: And the “treated milk SPC” value ([1]; 689 kPa, 4° C., 8 days)?
A: 4.99 log10 cfu/ml

Q: And the “treated milk SPC” value ([1]; 689 kPa, 4° C., 9 days)?
A: 5.37 log10 cfu/ml

Q: And the “treated milk SPC” value ([1]; 689 kPa, 4° C., four days (from 3.48))?
A: 2.89 log10 cfu/ml

Q: What about the “SPC lower than initial counts” value ([1]; 689 kPa, 6.1° C., 4 days) of the same compound?
A: 0.89 log10 cfu/ml

Q: And the “SPC lower than the controls” value ([1]; 689 kPa, 6.1° C., 4 days)?
A: 3.48 log10 cfu/ml

Q: And the “difference in SPC between control and test milks” value ([1]; 689 kPa, 24 h, 10° C.)?
A: 2.68 log10 cfu/ml

Q: And the “SPC reduction from initial SPC” value ([1]; 689 kPa, 24 h)?
A: 0.82 log10

Q: What about the “SPC reduction versus control” value ([1]; 15 min) of the same compound?
A: 0.33 log10

Q: And the “SPC reduction versus control” value ([1]; 30 min)?
A: 0.39 log10

Q: And the “SPC of raw milk compared to untreated controls” value ([1]; all time-pressure combinations, even 68 kPa and 20° C.)?
A: significantly reduced

Q: What about the “Thermoduric Bacteria counts, Treated, 4 Days” value (thermoduric bacteria; 689 kPa CO2 pressure, 4 days, raw milk) of the same compound?
A: 1.0 * 10^0 cfu/ml

Q: What about the “Thermoduric Bacteria counts, Treated, 6 Days” value (thermoduric bacteria; 689 kPa CO2 pressure, 6 days, raw milk) of the same compound?
A: 9.0 * 10^0m cfu/ml

Q: And the “Thermoduric Bacteria counts, Treated, 8 Days” value (thermoduric bacteria; 689 kPa CO2 pressure, 8 days, raw milk)?
A: 2.1 * 10^1n cfu/ml

Q: And the “Thermoduric Bacteria counts, Treated, 9 Days” value (thermoduric bacteria; 689 kPa CO2 pressure, 9 days, raw milk)?
A: 3.7 * 10^1o cfu/ml

Q: What about the “total thermoduric bacteria counts in treated milk” value (thermoduric bacteria; 689 kPa, up to 9 days) of the same compound?
A: Neither E. coli nor total thermoduric bacteria counts increased

Q: What about the “Coliforms counts, Treated, 4 Days” value (coliforms; 4 days) of the same compound?
A: 1.0 * 10^2h cfu/ml

Q: What about the “Coliforms counts, Treated, 6 Days” value (coliforms; 6 days) of the same compound?
A: 1.0 * 10^2h cfu/ml

Q: And the “Coliforms counts, Treated, 8 Days” value (coliforms; 8 days)?
A: 9.3 * 10^1h cfu/ml

Q: What about the “Coliforms counts, Treated, 9 Days” value (coliforms; 9 days) of the same compound?
A: 9.0 * 10^1h cfu/ml

Q: What about the “SPC lower compared to control milk” value ([2]; 20-30 pmm dissolved CO2, 4 days at 7° C. (Mabbitt, 1982)) of the same compound?
A: 3 log10 cfu/ml

Q: And the “decrease in bulk raw milk microbiota” value ([2]; 3997 kPa (or 5800 psi) CO2, ≧40° C., 30 min (Calvo and Bacones, 2001))?
A: 2 log10 cfu/ml

Q: And the “reduction in aerobic microorganisms in whole milk” value ([2]; 6044 kPa CO2, 45° C., 24 h (Erkman, 2000))?
A: 6 log10 cfu/ml

Q: And the reduction ([2]; 14598 kPa CO2, 25° C., 5-h (Erkman, 1997))?
A: 8 log10 cfu/ml

Q: And the “reduction of bacterial growth in raw milk” value ([2]; addition of CO2, storage at 6.7° C. for 48 h (Shipe et al., 1978))?
A: 50%

Q: What about the “extension in storage life” value ([2]; good quality milk (10^3 cfu/ml)) of the same compound?
A: 3 days

Q: What about the “extension in storage life” value ([2]; poor quality milk (10^5 cfu/ml)) of the same compound?
A: 1.2 days

Q: What about the “reductions in populations of Lactobacillus plantarum” value (Lactobacillus plantarum) of the same compound?
A: more than 6 logs
